# Data from patent publication US6372957B1, “Transgenic mouse comprising a MEF2 binding site operatively linked to an indicator gene and methods of use” (Board of Regents, The University of Texas System, priority 1998, dated 2002).
# Columns and labels:
# [1] = test system: GAL4-MEF2C fusion protein; experiment: pG5E1b-luciferase (Gal-luc) reporter with GAL-MEF2C (complete open reading frame) in cardiomyocytes; type: cell-based, rat; conditions: for block of activation of GAL-MEF2C by PE: cardiomyocytes stimulated with PE
# Description: FIG. 12A, FIG. 12B and FIG. 12C. CaM kinase and MAP kinase target different domains of MEF2. Primary neonatal rat cardiomyocytes in serum-free medium were transiently transfected with the indicated expression plasmids and luciferase activity was determined in cell extracts. FIG. 12A, cells were stimulated with PE (10 uM) or 10% FBS, as indicated, and expression of the MEF2-dependent reporter, 3×MEF2-luciferase, was assayed. FIG. 12B, cells transiently transfected with pG5E1b-luciferase (Gal-luc) and GAL-MEF2C were stimulated with PE, as in FIG. 12A, in the presence of KN62 or SB202190, as indicated. FIG. 12C, cells were transiently transfected with pG5E1b-luciferase and GAL-MEF2C (left panel) or GAL-MEF2C-ΔN (right panel) along with activated CaMKIV and MKK6, as indicated.
# MEF2 [2] = experiment: 3×MEF2-luciferase MEF2-dependent reporter in transiently transfected primary neonatal rat cardiomyocytes; type: cell-based
# Description: To determine whether MEF2 was a target for hypertrophic signaling in cardiomyocytes, the inventors tested whether hypertrophy in response to phenylephrine (PE) and fetal bovine serum (FBS) activated a MEF2-dependent reporter (3×MEF2-luciferase), containing three MEF2 binding sites.
# MEF2 [3] = experiment: MEF2 DNA binding activity in stimulated cardiomyocytes; type: cell-based, rat; conditions: cardiomyocytes stimulated with PE or FBS
# [4] = test system: GAL4-MEF2C fusion protein; experiment: GAL4-dependent reporter with GAL4 fused to the C-terminus of MEF2C (transcription activation domains) in cardiomyocytes; type: cell-based; conditions: stimulation of cardiomyocytes
# Excerpt: FIG. 6. Phenylephrine induces MEF2C transcriptional activity through a CaMK-dependent pathway. Cardiomyocytes were transiently transfected with expression vectors encoding GAL4-MEF2C and a GAL4-dependent reporter gene in the presence and absence of PE and the CaMK inhibitor KN-93.
# In light of the ability of MEF2 to respond to calcium-dependent signal transduction pathways in T cells, the inventors have investigated whether the same pathways also activate MEF2 in cardiomyocytes. […] When the C-terminus of MEF2C, which contains the transcription activation domains (TADs), but lacks the MADS and MEF2 domains required for DNA binding and dimerization, is fused to the DNA binding domain of the yeast transcription factor GAL4, the resulting GAL4-MEF2C fusion protein retains sensitivity to calcineurin and CaMKIV (FIG. 5). This GAL4-MEF2C fusion protein is also activated by stimulation of cardiomyocytes with the hypertrophic agonist phenylephrine (PE) (FIG. 6).
Compound,block of activation of GAL-MEF2C by PE [1],"activity of GAL4-MEF2C fusion protein (complete open reading frame of MEF2C) ([1]; cardiomyocytes, PE or FBS)","activation of a reporter containing a mutant MEF2 site (MEF2 [2]; cardiomyocytes, PE or FBS)","activation of MEF2-dependent reporter (3×MEF2-luciferase) (MEF2 [2]; primary neonatal rat cardiomyocytes, serum-free medium, PE 10 uM or 10% FBS)",amount of MEF2 DNA binding activity (MEF2 [3]),activation of GAL4-MEF2C fusion protein (C-terminus of MEF2C) [4]
CN([C@@H](Cc1ccc(OS(=O)(=O)c2cccc3cnccc23)cc1)C(=O)N1CCN(c2ccccc2)CC1)S(=O)(=O)c1cccc2cnccc12 [KN62],partially blocked,,,,,
"CNC[C@H](O)c1cccc(O)c1 [PE, phenylephrine]",,stimulated activity,not a reporter containing a mutant MEF2 site,stimulated the MEF2 reporter,unchanged,activated
Oc1ccc(-c2nc(-c3ccncc3)c(-c3ccc(F)cc3)[nH]2)cc1 [SB202190],partially blocked,,,,,
